Values quoted from earlier work in US20220202008A1, “BAIT FOR A PEST” (FALCON LIFE SCIENCES LTD, priority 2020, published 2022).

Tested on: mouse
Settings: acute dose

## COC(C)(C)CCCC(C)CC=CC(C)=CC(=O)OC(C)C (stereo not shown) [methoprene, isopropyl 11-methoxy-3,7,11-trimethyldodeca-2,4-dienoate]
  LD50: around 5000 ppm
